This passage reports IC50 results from US20160046616A1, “NRF2 SMALL MOLECULE INHIBITORS FOR CANCER THERAPY” (THE JOHNS HOPKINS UNIVERSITY, priority 2013, published 2016).

The test system of assay [1] is H1437 NRF2-ARE-Fluc stable cell line. As to the kind of experiment: H1437 Nrf2 assay: NRF2-ARE firefly luciferase reporter gene assay. In kind it is cell-based. The following applies: Homo sapiens, NCI-H1437, H1437 NRF2-ARE-Fluc stable cell line; read-out: Potency of inhibition, H1437. From the text: H1437 is another NSCLC cell line with LOF Keap1 activity and constitutive translocation of NRF2 into the nucleus. A firefly luciferase reporter construct driven by a minimal promoter of NRF2-specific ARE is stably expressed in the H1437 cells. This cell line was used as a confirmation assay to make sure hits identified from primary screening and that passed counterscreen assays worked in different cell types with a constitutively active NRF2 pathway (deficiency in Keap1).
This assay was very similar to the primary assay except that the cell line was changed. […] The final concentration of DMSO was maintained at 0.46%. Control compounds Budesonide and Staurosporine were both added at a concentration of 2 mM and Budesonide was also added as a 1:10 titration, starting at 200 μM, to achieve dose-response. After an 18-24 hour incubation at 37° C., 95% humidity, and 5% CO2, 1 μL of 5× CellTiter-Fluor non-lytic cell viability assay reagent (Promega, Madison Wis.) was added into the each well of the plates. The plates were then incubated for 30 minutes at room temperature before they were read on a ViewLux plate imager (Perkin Elmer, Waltham Mass.) using an excitation wavelength of 405 nm and an emission wavelength of 525 nm.
(§1) Representative compounds were assayed to assess the potency of inhibition in an A549 NRF2-ARE-Fluc stable cell line (A549 Nrf2 assay), in an H838 NRF2-ARE-Fluc stable cell line (H838 Nrf2 assay), and in an H1437 NRF2-ARE-Fluc stable cell line (H1437 Nrf2 assay) (see Table 3).
On the technique in general: Reporter assays use an easily measured gene product as a stand-in for the process of interest.

Assay [2] relates to A549 NRF2-ARE-Fluc stable cell line. Nature of the assay: A549 Nrf2 assay: NRF2-ARE firefly luciferase reporter gene assay. The following applies: Homo sapiens, read-out: Potency of inhibition, A549. In kind it is cell-based.
Text: A549, the parental cell line, is a non-small-cell lung cancer (NSCLC) cell line with loss-of-function (LOF) Keap1 activity, thus NRF2 transcription factor constitutively translocates into the nucleus to activate the expression of downstream target genes of NRF2. A firefly luciferase reporter (Fluc) construct driven by a minimal promoter of NRF2-specific anti-oxidant responsive element (ARE) is stably expressed in the A549 cells. Compounds that reduce the translocation of NRF2 into the nucleus or prevent the interaction between NRF2 and ARE will lead to a decrease in luciferase activity.
The final concentration of DMSO was maintained at 0.46%. Control compounds Budesonide and Staurosporine were both added at a concentration of 2 mM and Budesonide also was added as a 1:10 titration, starting at 200 μM, to achieve dose-response. After an 18-24 hour incubation at 37° C., 95% humidity, and 5% CO2, 1 μL of 5× CellTiter-Fluor non-lytic cell viability assay reagent (Promega, Madison, Wis.) was added into the each well of the plates. The plates were then incubated for 30 minutes at room temperature before they were read on a ViewLux plate imager (Perkin Elmer, Waltham, Mass.) using an excitation wavelength of 405 nm and an emission wavelength of 525 nm.
A cell based reporter assay approach was used for the identification of agents that could inhibit Nrf2 mediated gene expression (FIG. 1). A549-ARE-luciferase cells express the luciferase gene driven by a minimal promoter and an enhancer element containing an NRF2 binding site (Antioxidant Response Element, ARE).
as §1

Structures are written as SMILES.

Take `O=C(Nc1ccc(S(=O)(=O)NC2CCOCC2)cc1)c1ccc(CN2CCc3ccccc3C2)cc1` [compound 176]: the IC50 is 5 to 25 µM in assay [1] and less than 5 µM in assay [2].
In the same order, the values of `Cc1ccccc1C(=O)N1CCc2cc(-c3nc(NC(=O)CN4CCNCC4)sc3C)ccc21` [Compound 70, N-(5-methyl-4-(1-(2-methylbenzoyl)indolin-5-yl)thiazol-2-yl)-2-(piperazin-1-yl)acetamide] are greater than 25 µM and greater than 25 µM.
In the same order, the values of `Cc1csc2ncnc(N3CCN(S(=O)(=O)c4cccc(C(F)(F)F)c4)CC3)c12` [Compound 43] are less than 5 µM and 5 to 25 µM.
On the same counts, the results for `O=C(Nc1ccccc1)c1ccc(CN2CCc3ccccc3C2)cc1` [compound 143] are greater than 25 µM and 5 to 25 µM.
Regarding `Cc1ccc(CC(=O)Nc2nc(-c3ccc4c(c3)CCN4C(=O)c3ccccc3C)c(C)s2)cc1C` [Compound 10], the IC50 is greater than 25 µM in assay [1] and 5 to 25 µM in assay [2].
Regarding `Cc1sc(NC(=O)Cc2ccc3c(c2)OCO3)nc1-c1ccc2c(c1)CCN2C(=O)CN(C)C` [Compound 180], the IC50 is greater than 25 µM in assay [1] and 5 to 25 µM in assay [2].
In the same order, the values of `CC(=O)N1CCN(S(=O)(=O)c2ccc(NC(=O)c3ccc(CN4CCc5ccccc5C4)cc3)cc2)CC1` [Compound 198] are less than 5 µM and less than 5 µM.
Consider `O=C(Nc1ncc(CN2CCCCC2)s1)c1ccc(-c2cccc([N+](=O)[O-])c2)o1` [Compound 87], for which the IC50 in assay [1] and in assay [2] was greater than 25 µM each time.
For the compound `Cc1sc(NC(=O)Cc2ccc3c(c2)OCO3)nc1-c1ccc2c(c1)CCN2C(=O)c1c(Cl)cnn1C` [Compound 187], the IC50 in assay [1] and in assay [2] was less than 5 µM throughout.
Turning to `Cc1cccc(Cn2ccc(C(=O)Nc3ncc(Cc4ccc(C(F)(F)F)cc4)s3)n2)c1` [Compound 189], the IC50 in assay [1] is less than 5 µM; in assay [2], 5 to 25 µM.
With `Cc1ccccc1S(=O)(=O)N1CCc2cc(-c3nc(NC(=O)Cc4ccc(Cl)cc4)sc3C)ccc21` [Compound 135], the IC50 in assay [1] was 5 to 25 µM; in assay [2], less than 5 µM.
On the same counts, the results for `Cc1nccc(Cn2ccc(C(=O)Nc3ncc(Cc4ccc(C(F)(F)F)cc4)s3)n2)n1` [Compound 190] are 5 to 25 µM and 5 to 25 µM.
Turning to `Cc1sc(NC(=O)Cc2ccc3c(c2)OCO3)nc1-c1ccc2c(c1)CCN2C(=O)c1ccccc1C(F)(F)F` [Compound 121], the IC50 in assay [1] was greater than 25 µM; in assay [2], less than 5 µM.
For the compound `O=C(Nc1ccc(S(=O)(=O)N2CCOC(c3ccccc3)C2)cc1)c1ccc(CN2CCc3ccccc3C2)cc1` (stereo not shown) [compound 171], the values for the IC50 in assay [1] and in assay [2] were greater than 25 µM and less than 5 µM, respectively.
`O=C(Nc1ccc(S(=O)(=O)N2CCCCC2)cc1)c1ccc(CN2CCc3ccccc3C2)cc1` [Compound 38]: the IC50 in assay [1] and in assay [2] was less than 5 µM throughout.
Regarding `Cc1ccccc1C(=O)N1CCc2cc(-c3nc(NC(=O)Cc4ccc5c(c4)OCCO5)sc3C)ccc21` [Compound 5], the IC50 was less than 5 µM in assay [1] and 5 to 25 µM in assay [2].
As for `O=C(Nc1ccc(S(=O)(=O)N2CCOCC2)cc1)c1ccc(CN2CCCCC2)cc1` [compound 179], the IC50 is greater than 25 µM in assay [1] and 5 to 25 µM in assay [2].
In the case of `Cc1sc(NC(=O)Cc2ccc3c(c2)OCO3)nc1-c1ccc2c(c1)CCN2C(=O)c1cncn1C` [Compound 161], the IC50 in assay [1] and in assay [2] was less than 5 µM in each case.
Consider `Cc1occc1C(=O)N1CCc2cc(-c3nc(NC(=O)Cc4ccc5c(c4)OCO5)sc3C)ccc21` [Compound 159], for which the IC50 in assay [1] and in assay [2] was less than 5 µM each time.
For the compound `CC(=O)N1CCc2cc(S(=O)(=O)NCCC3=CCCCC3)ccc21` [Compound 35], the IC50 in assay [1] is 5 to 25 µM; in assay [2], less than 5 µM.
As for `NC(=O)C1CCN(c2ccc(S(=O)(=O)N3CCC(Cc4ccccc4)CC3)cn2)CC1` [Compound 41], the IC50 in assay [1] was 5 to 25 µM; in assay [2] it was less than 5 µM.
Regarding `O=C(Nc1ncc(Cc2ccc(C(F)(F)F)cc2)s1)c1ccc(Br)o1` [Compound 98], the IC50 in assay [1] and in assay [2] was 5 to 25 µM each time.
As for `COCCN(C)S(=O)(=O)c1ccc(NC(=O)c2ccc(CN3CCc4ccccc4C3)cc2)cc1` [compound 174], the IC50 in assay [1] was greater than 25 µM; in assay [2], less than 5 µM.
Turning to `O=C(Cc1ccccc1)Nc1cccc(-c2ccc3[nH]cnc3c2)n1` [Compound 57, N-(6-(1H-benzo[d]imidazol-5-yl)pyridin-2-yl)-2-phenylacetamide], the IC50 in assay [1] and in assay [2] was greater than 25 µM throughout.
`O=C(CCc1ccccc1)Nc1ncc(Cc2ccc(C(F)(F)F)cc2)s1` [Compound 74]: the IC50 in assay [1] and in assay [2] was greater than 25 µM throughout.
Turning to `Cc1ccccc1S(=O)(=O)N1CCc2cc(-c3nc(NC(=O)Cc4cccc(Cl)c4)sc3C)ccc21` [Compound 125], the IC50 is 5 to 25 µM in assay [1] and less than 5 µM in assay [2].
As to `O=C(Nc1ncc(Cc2ccc(C(F)(F)F)cc2)s1)c1ccn(-c2ccccc2)n1` [Compound 110], the IC50 was 5 to 25 µM in assay [1] and less than 5 µM in assay [2].
Consider `Cc1cc(C(=O)Nc2ncc(Cc3ccc(C(F)(F)F)cc3)s2)nn1CCN1CCOCC1` [Compound 194], for which the IC50 in assay [1] and in assay [2] was 5 to 25 µM each time.
Consider `CN(C1CCOCC1)S(=O)(=O)c1ccc(NC(=O)c2ccc(CN3CCc4ccccc4C3)cc2)cc1` [compound 167], for which the figures for the IC50 in assay [1] and in assay [2] were 5 to 25 µM and less than 5 µM, respectively.
In the same order, the values of `O=C(Nc1ncc(Cc2ccc(C(F)(F)F)cc2)s1)c1ccc(-c2ccccc2)o1` [Compound 19] are greater than 25 µM and 5 to 25 µM.
On the same counts, the results for `O=C(Cc1ccccc1)Nc1cccc(-c2cnc3[nH]ccc3c2)n1` [Compound 88, N-(6-(1H-pyrrolo[2,3-b]pyridin-5-yl)pyridin-2-yl)-2-phenylacetamide] are greater than 25 µM and 5 to 25 µM.
In the same order, the values of `CN(Cc1ccccc1)Cc1ccc(C(=O)Nc2ccc(S(=O)(=O)N3CCOCC3)cc2)cc1` [compound 168] are less than 5 µM and less than 5 µM.
`O=C(Nc1ccc(S(=O)(=O)N2CCCC2)cc1)c1ccc(CN2CCc3ccccc3C2)cc1` [compound 145]: the IC50 in assay [1] is greater than 25 µM; in assay [2], less than 5 µM.
On the same counts, the results for `CCOC(=O)N1CCN(S(=O)(=O)c2ccc(NC(=O)c3ccc(CN4CCc5ccccc5C4)cc3)cc2)CC1` [Compound 199] are less than 5 µM and less than 5 µM.
On the same counts, the results for `O=C(Nc1ncc(Cc2ccccc2)s1)c1ccc(-c2cccc([N+](=O)[O-])c2)o1` [Compound 16] are 5 to 25 µM and 5 to 25 µM.
For `COc1ccc(CC(=O)Nc2nc(-c3ccc4c(c3)CCN4C(=O)C3CC3C)c(C)s2)cc1` (stereo not shown) [Compound 208], the IC50 in assay [1] and in assay [2] was less than 5 µM throughout.
Take `O=C(Cc1ccccc1)Nc1cccc(-c2ccc3[nH]c(-c4ccccc4)nc3c2)n1` [Compound 92]: the IC50 was greater than 25 µM in assay [1] and 5 to 25 µM in assay [2].
Turning to `O=C(Nc1ncc(Cc2ccc(C(F)(F)F)cc2)s1)c1cnc(-c2ccccc2)o1` [Compound 86], the IC50 in assay [1] and in assay [2] was 5 to 25 µM each time.
